Reference: ChEMBL document CHEMBL1201862, “PubChem BioAssay data set” (2004)
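48-hour exposure; five concentrations; linearly interpolated endpoints. GI50 marks 50% less growth.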 Active and inactive are the calls of the source. No stated cut-off is given here; in the data, active = GI50 up to about 1.1 µM and inactive = higher.

What was measured:
Test in all cases: inhibition of tumour cell growth, NCI panel, 48 h
[1] = tested on: OVCAR-5
[2] = tested on: KM12
[3] = tested on: SF-539
[4] = tested on: NCI-H460
[5] = tested on: HOP-92
[6] = tested on: UACC-62
[7] = tested on: COLO 205
[8] = tested on: DMS-273
[9] = tested on: HT-29
[10] = tested on: LXFL 529
[11] = tested on: SN12C
[12] = tested on: KM-20L2
[13] = tested on: OVCAR-3
[14] = tested on: NCI-H226
[15] = tested on: SK-MEL-5
[16] = tested on: SNB-19
[17] = tested on: CCRF-CEM
[18] = tested on: U-251
[19] = tested on: SK-MEL-28
[20] = tested on: Malme-3M
[21] = tested on: CAKI-1
[22] = tested on: SNB-78
[23] = tested on: HL-60
[24] = tested on: HCC 2998
[25] = tested on: SR
[26] = tested on: UACC-257
[27] = tested on: LOX IMVI
[28] = tested on: NCI-H23
[29] = tested on: MOLT-4
[30] = tested on: K562
[31] = tested on: OVCAR-4
[32] = tested on: HCT-15
[33] = tested on: M19-MEL
[34] = tested on: OVCAR-8
[35] = tested on: DMS-114
[36] = tested on: RPMI-8226
[37] = tested on: HOP-62
[38] = tested on: A549
[39] = tested on: SNB-75
[40] = tested on: SW-620
[41] = tested on: RXF 631
[42] = tested on: DLD-1
[43] = tested on: SF-268
[44] = tested on: 786-0
[45] = tested on: NCI-H522
[46] = tested on: RXF 393
[47] = tested on: UO-31
[48] = tested on: M14
[49] = tested on: IGROV-1
[50] = tested on: SF-295
[51] = tested on: HCT-116
[52] = tested on: SK-OV-3
[53] = tested on: A498
[54] = tested on: HOP-18
[55] = tested on: TK-10
[56] = tested on: XF498
[57] = tested on: ACHN
[58] = tested on: EKVX
[59] = tested on: SK-MEL-2
[60] = tested on: MCF7
[61] = tested on: NCI/ADR-RES
[62] = tested on: Hs-578T
[63] = tested on: BT-549
[64] = tested on: T47D
[65] = tested on: PC-3
[66] = tested on: DU-145
[67] = tested on: MDA-MB-435
[68] = tested on: MDA-N
[69] = tested on: MDA-MB-231

COC(=O)N/N=C(\c1nc2ccc(Cl)cc2nc1O)C(O)c1ccc([N+](=O)[O-])cc1 (stereo not drawn)
GI50 [1]: > 100 µM (inactive) | GI50 [2]: > 100 µM (inactive) | GI50 [3]: > 100 µM (inactive) | GI50 [4]: > 100 µM (inactive) | GI50 [5]: > 100 µM (inactive) | GI50 [6]: > 100 µM (inactive) | GI50 [7]: > 100 µM (inactive) | GI50 [8]: > 100 µM (inactive) | GI50 [9]: > 100 µM (inactive) | GI50 [10]: > 100 µM (inactive) | GI50 [11]: > 100 µM (inactive) | GI50 [12]: > 100 µM (inactive) | GI50 [13]: > 100 µM (inactive) | GI50 [14]: > 100 µM (inactive) | GI50 [15]: > 100 µM (inactive) | GI50 [16]: > 100 µM (inactive) | GI50 [17]: 89.7 µM (inactive) | GI50 [18]: > 100 µM (inactive) | GI50 [19]: > 100 µM (inactive) | GI50 [20]: > 100 µM (inactive) | GI50 [21]: > 100 µM (inactive) | GI50 [22]: > 100 µM (inactive) | GI50 [23]: > 100 µM (inactive) | GI50 [24]: > 100 µM (inactive) | GI50 [25]: 30.5 µM (inactive) | GI50 [26]: > 100 µM (inactive) | GI50 [27]: > 100 µM (inactive) | GI50 [28]: > 100 µM (inactive) | GI50 [29]: 98.4 µM (inactive) | GI50 [30]: > 100 µM (inactive) | GI50 [31]: > 100 µM (inactive) | GI50 [32]: > 100 µM | GI50 [33]: > 100 µM (inactive) | GI50 [34]: > 100 µM (inactive) | GI50 [35]: > 100 µM (inactive) | GI50 [36]: > 100 µM (inactive) | GI50 [37]: > 100 µM (inactive) | GI50 [38]: > 100 µM (inactive) | GI50 [39]: > 100 µM (inactive) | GI50 [40]: > 100 µM (inactive) | GI50 [41]: > 100 µM (inactive) | GI50 [42]: > 100 µM (inactive) | GI50 [43]: > 100 µM (inactive) | GI50 [44]: > 100 µM (inactive) | GI50 [45]: > 100 µM (inactive) | GI50 [46]: > 100 µM (inactive) | GI50 [47]: > 100 µM (inactive) | GI50 [48]: > 100 µM (inactive) | GI50 [49]: > 100 µM (inactive) | GI50 [50]: > 100 µM (inactive) | GI50 [51]: > 100 µM (inactive) | GI50 [52]: > 100 µM (inactive)

C=CCn1c2c(sc1=S)C(S)NC=N2 (stereo not drawn)
GI50 [1]: > 100 µM (inactive) | GI50 [2]: > 100 µM (inactive) | GI50 [3]: 85.1 µM (inactive) | GI50 [4]: > 100 µM (inactive) | GI50 [5]: 16.8 µM (inactive) | GI50 [6]: 27.5 µM (inactive) | GI50 [7]: > 100 µM (inactive) | GI50 [8]: > 100 µM (inactive) | GI50 [9]: > 100 µM (inactive) | GI50 [10]: > 100 µM (inactive) | GI50 [11]: > 100 µM (inactive) | GI50 [12]: > 100 µM (inactive) | GI50 [13]: 94.2 µM (inactive) | GI50 [14]: > 100 µM (inactive) | GI50 [15]: 54.5 µM (inactive) | GI50 [16]: 99.8 µM (inactive) | GI50 [17]: 95.9 µM (inactive) | GI50 [18]: 32.6 µM (inactive) | GI50 [53]: 30.8 µM (inactive) | GI50 [19]: > 100 µM (inactive) | GI50 [20]: 10.4 µM (inactive) | GI50 [54]: 18.9 µM (inactive) | GI50 [21]: > 100 µM (inactive) | GI50 [22]: 78.2 µM (inactive) | GI50 [23]: > 100 µM (inactive) | GI50 [24]: 26.5 µM (inactive) | GI50 [55]: > 100 µM (inactive) | GI50 [25]: 91.8 µM (inactive) | GI50 [26]: 71 µM (inactive) | GI50 [27]: > 100 µM (inactive) | GI50 [28]: 90.6 µM (inactive) | GI50 [29]: > 100 µM (inactive) | GI50 [30]: 73.5 µM (inactive) | GI50 [31]: > 100 µM (inactive) | GI50 [32]: > 100 µM | GI50 [33]: > 100 µM (inactive) | GI50 [34]: > 100 µM (inactive) | GI50 [35]: 43.7 µM (inactive) | GI50 [36]: 38.5 µM (inactive) | GI50 [37]: 39 µM (inactive) | GI50 [38]: 69 µM (inactive) | GI50 [39]: > 100 µM (inactive) | GI50 [40]: > 100 µM (inactive) | GI50 [42]: > 100 µM (inactive) | GI50 [56]: > 100 µM (inactive) | GI50 [43]: 4.65 µM (inactive) | GI50 [57]: 71.3 µM (inactive) | GI50 [44]: > 100 µM (inactive) | GI50 [58]: 49.5 µM (inactive) | GI50 [45]: 34.8 µM (inactive) | GI50 [59]: > 100 µM (inactive) | GI50 [46]: > 100 µM (inactive) | GI50 [47]: 34.1 µM (inactive) | GI50 [48]: > 100 µM (inactive) | GI50 [49]: 88.5 µM (inactive) | GI50 [50]: 61.2 µM (inactive) | GI50 [51]: 77.3 µM (inactive) | GI50 [52]: > 100 µM (inactive)

CCC1CN2CCc3cc(OC)c(OC)cc3C2CC1CC1c2cc(OC)c(OC)cc2CCN1C(=O)C(Cc1c[nH]c2ccccc12)NC(=O)OC(C)(C)C (stereo not drawn)
GI50 [1]: 8.81 µM (inactive) | GI50 [2]: 2.83 µM (inactive) | GI50 [60]: 2.31 µM (inactive) | GI50 [3]: 2.34 µM (inactive) | GI50 [4]: 2.39 µM (inactive) | GI50 [5]: 2.62 µM (inactive) | GI50 [6]: 5.64 µM (inactive) | GI50 [61]: 1.63 µM (inactive) | GI50 [7]: 1.57 µM (inactive) | GI50 [8]: 6.53 µM (inactive) | GI50 [9]: 2.03 µM (inactive) | GI50 [10]: 3.94 µM (inactive) | GI50 [11]: 3.26 µM (inactive) | GI50 [12]: 1.87 µM (inactive) | GI50 [13]: 3.3 µM (inactive) | GI50 [62]: 2.08 µM (inactive) | GI50 [14]: 13.4 µM (inactive) | GI50 [15]: 1.67 µM (inactive) | GI50 [63]: 3.36 µM (inactive) | GI50 [16]: 7.59 µM (inactive) | GI50 [17]: 3.1 µM (inactive) | GI50 [18]: 2.57 µM (inactive) | GI50 [53]: 6.65 µM (inactive) | GI50 [19]: 1.98 µM (inactive) | GI50 [20]: 1.74 µM (inactive) | GI50 [54]: 4.13 µM (inactive) | GI50 [64]: 1.85 µM (inactive) | GI50 [21]: 6.84 µM (inactive) | GI50 [22]: 15.5 µM (inactive) | GI50 [23]: 2.03 µM (inactive) | GI50 [24]: 2.63 µM (inactive) | GI50 [55]: 7.83 µM (inactive) | GI50 [25]: 1.73 µM (inactive) | GI50 [26]: 2.71 µM (inactive) | GI50 [27]: 1.88 µM (inactive) | GI50 [28]: 7.67 µM (inactive) | GI50 [29]: 2.47 µM (inactive) | GI50 [30]: 2.7 µM (inactive) | GI50 [31]: 1.7 µM (inactive) | GI50 [32]: 2.58 µM | GI50 [33]: 1.69 µM (inactive) | GI50 [34]: 3.27 µM (inactive) | GI50 [35]: 1.38 µM (inactive) | GI50 [36]: 2.52 µM (inactive) | GI50 [37]: 4.91 µM (inactive) | GI50 [38]: 3.61 µM (inactive) | GI50 [39]: 2.59 µM (inactive) | GI50 [40]: 2.82 µM (inactive) | GI50 [65]: 3.12 µM (inactive) | GI50 [66]: 2.42 µM (inactive) | GI50 [42]: 8.39 µM (inactive) | GI50 [56]: 1.78 µM (inactive) | GI50 [43]: 5.4 µM (inactive) | GI50 [67]: 1.78 µM (inactive) | GI50 [57]: 3.84 µM (inactive) | GI50 [44]: 2.61 µM (inactive) | GI50 [68]: 1.97 µM (inactive) | GI50 [69]: 2.16 µM (inactive) | GI50 [58]: 5.7 µM (inactive) | GI50 [45]: 2.28 µM (inactive) | GI50 [59]: 2.67 µM (inactive) | GI50 [46]: 2.67 µM (inactive) | GI50 [47]: 2.77 µM (inactive) | GI50 [48]: 1.79 µM (inactive) | GI50 [49]: 1.73 µM (inactive) | GI50 [50]: 3.97 µM (inactive) | GI50 [51]: 1.6 µM (inactive) | GI50 [52]: 4.8 µM (inactive)
